pIC50: −log10 of the molar value. Where a name gives a salt, the structure may show the parent alone.
The compounds below were run against T1, LRRK2 kinase in SH-SY5Y cells over-expressing recombinant full length LRRK2 (Homo sapiens, UniProt Q5S007) (assay: Recombinant cellular LRRK2 AlphaScreen assay (LRRK2 Ser935 phosphorylation)). Conditions: 60 min.
T1 construct: A BacMam virus expressing full length recombinant LRRK2 was purchased from Invitrogen; host or cells: SH-SY5Y human neuroblastoma cells transduced with BacMam LRRK2 virus
T1 sequence (Q5S007 whole entry): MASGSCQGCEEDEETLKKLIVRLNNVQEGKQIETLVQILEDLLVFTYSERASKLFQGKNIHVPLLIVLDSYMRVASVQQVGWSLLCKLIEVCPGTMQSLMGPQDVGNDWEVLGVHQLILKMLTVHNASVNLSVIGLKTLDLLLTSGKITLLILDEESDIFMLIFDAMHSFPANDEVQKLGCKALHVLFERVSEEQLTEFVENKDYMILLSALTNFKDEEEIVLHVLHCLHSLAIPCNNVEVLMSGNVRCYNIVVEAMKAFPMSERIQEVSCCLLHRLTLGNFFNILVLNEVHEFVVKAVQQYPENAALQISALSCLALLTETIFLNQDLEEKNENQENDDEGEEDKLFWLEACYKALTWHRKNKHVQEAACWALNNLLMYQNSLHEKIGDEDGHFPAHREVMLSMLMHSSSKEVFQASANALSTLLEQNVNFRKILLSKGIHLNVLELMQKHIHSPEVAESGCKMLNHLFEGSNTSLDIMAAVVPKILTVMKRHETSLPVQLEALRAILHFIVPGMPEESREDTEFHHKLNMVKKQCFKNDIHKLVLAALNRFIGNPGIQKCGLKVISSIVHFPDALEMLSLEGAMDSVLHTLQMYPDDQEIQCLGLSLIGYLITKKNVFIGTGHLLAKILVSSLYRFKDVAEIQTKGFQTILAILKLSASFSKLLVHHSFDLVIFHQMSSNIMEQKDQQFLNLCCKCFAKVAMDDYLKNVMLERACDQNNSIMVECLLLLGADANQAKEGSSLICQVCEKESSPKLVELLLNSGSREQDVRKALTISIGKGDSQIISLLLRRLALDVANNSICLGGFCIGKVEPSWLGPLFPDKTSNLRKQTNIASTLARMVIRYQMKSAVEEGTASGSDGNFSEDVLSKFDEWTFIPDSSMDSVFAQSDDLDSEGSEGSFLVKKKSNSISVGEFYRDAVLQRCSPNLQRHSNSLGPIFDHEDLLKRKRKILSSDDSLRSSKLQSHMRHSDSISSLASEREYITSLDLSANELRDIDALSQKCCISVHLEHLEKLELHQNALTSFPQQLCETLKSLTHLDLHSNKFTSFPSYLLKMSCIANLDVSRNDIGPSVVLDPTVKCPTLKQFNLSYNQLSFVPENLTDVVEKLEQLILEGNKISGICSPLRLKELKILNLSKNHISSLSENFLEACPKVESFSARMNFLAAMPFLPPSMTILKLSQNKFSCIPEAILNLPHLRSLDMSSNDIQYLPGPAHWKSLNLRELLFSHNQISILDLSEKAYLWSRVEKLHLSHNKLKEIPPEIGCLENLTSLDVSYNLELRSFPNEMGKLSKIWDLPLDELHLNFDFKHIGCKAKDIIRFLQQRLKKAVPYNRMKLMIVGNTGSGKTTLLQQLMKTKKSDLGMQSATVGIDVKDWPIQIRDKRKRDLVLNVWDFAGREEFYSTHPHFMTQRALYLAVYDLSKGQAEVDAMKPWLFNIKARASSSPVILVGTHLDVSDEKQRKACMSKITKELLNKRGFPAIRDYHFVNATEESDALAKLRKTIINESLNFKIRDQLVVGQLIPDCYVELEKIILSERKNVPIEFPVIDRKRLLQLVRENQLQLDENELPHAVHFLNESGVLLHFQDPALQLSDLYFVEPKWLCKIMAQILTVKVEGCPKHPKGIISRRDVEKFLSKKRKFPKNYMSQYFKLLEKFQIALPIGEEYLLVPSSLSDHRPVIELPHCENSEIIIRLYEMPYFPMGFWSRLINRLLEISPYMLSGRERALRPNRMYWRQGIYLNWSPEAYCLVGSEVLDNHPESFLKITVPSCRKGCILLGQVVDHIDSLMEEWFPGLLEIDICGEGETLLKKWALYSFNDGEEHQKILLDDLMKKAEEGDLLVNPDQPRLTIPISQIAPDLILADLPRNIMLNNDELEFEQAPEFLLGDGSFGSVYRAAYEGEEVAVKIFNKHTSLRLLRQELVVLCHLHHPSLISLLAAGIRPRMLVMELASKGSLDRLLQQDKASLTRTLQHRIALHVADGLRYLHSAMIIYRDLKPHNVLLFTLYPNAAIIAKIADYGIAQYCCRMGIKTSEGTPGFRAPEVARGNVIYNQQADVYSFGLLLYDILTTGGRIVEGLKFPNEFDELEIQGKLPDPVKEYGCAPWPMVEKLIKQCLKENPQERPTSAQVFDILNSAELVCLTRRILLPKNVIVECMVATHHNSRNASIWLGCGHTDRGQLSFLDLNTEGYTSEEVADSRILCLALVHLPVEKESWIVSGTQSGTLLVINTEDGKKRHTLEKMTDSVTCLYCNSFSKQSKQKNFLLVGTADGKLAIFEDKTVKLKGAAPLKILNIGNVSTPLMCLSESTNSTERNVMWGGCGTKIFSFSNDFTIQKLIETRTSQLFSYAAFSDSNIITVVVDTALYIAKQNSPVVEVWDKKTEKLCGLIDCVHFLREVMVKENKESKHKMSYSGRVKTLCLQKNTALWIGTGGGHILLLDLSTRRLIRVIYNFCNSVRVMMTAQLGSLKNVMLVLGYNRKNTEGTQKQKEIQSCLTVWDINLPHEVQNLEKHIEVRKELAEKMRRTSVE
Format: cell-based
From the text: b. Recombinant Cellular LRRK2 AlphaScreen Assay
To determine the activity of compounds against LRRK2 kinase in cells, the observed LRRK2 kinase-dependent modulation of LRRK2 Ser 935 phosphorylation (Dzamko et al., 2010, Biochem. J. 430: 405-413) was utilized to develop a quantitative 384 well plate-based immunoassay of LRRK2 Ser935 phosphorylation in the human neuroblastoma cell line SH-SY5Y, engineered to over-express recombinant full length LRRK2 protein.
A BacMam virus expressing full length recombinant LRRK2 was purchased from Invitrogen and amplified by inoculation of SF-9 cells at MOI 0.3 for 4-5 days in Sf-900 III SFM medium supplemented with 3% fetal bovine serum. Infected cell cultures were then centrifuged at 2000 g for 20 minutes, viral supernatant titer determined by anti-gp64 plaque assay and stored at 4° C.
Affinity-purified anti-phospho LRRK2 Ser935 sheep polyclonal antibody (Dzamko et al., 2010, Biochem. J. 430: 405-413) was biotinylated by standard methods (PerkinElmer). Anti-LRRK2 rabbit polyclonal antibody was purchased from Novus Biologicals. AlphaScreen Protein A IgG Kit (including acceptor and donor beads) was purchased from Perkin Elmer.
SH-SY5Y cells were grown in DMEM/F12 medium with 10% dialysed fetal bovine serum and harvested by treatment with 0.5% trypsin-EDTA for 5 minutes at 37° C. followed by centrifugation at 1000 rpm for 4 minutes. The cell pellet was resuspended in Opti-MEM reduced serum media (Invitrogen) at 200,000 cells/ml and mixed with the BacMam LRRK2 virus at M01=50. 50 μl cell solutions were then dispensed to each well of a 384-well plate and incubated at 37° C., 5% CO2 for 24 hours.
Compounds were prepared at 10× final assay concentration as 11 point 1 in 4 serial I dilutions in Opti-MEM reduced serum medium (Invitrogen 31985070) containing 1% DMSO. On the day of assay, 5.5 μl of the compound solutions were transferred from the compound plate to the cell assay plate to achieve a top final assay concentration of 10 uM. DMSO (0.1% final assay concentration) was added to column 6 and 2-(benzyloxy)-5-methyl-4-(1-methyl-1H-pyrazol-4-yl)-N-(pyridin-3-yl)benzamide (2 μM final assay concentration) was added to column 18 to serve as 0% and 100% inhibition controls, respectively.
Cells were incubated at 37° C., 5% CO2 for 60 minutes. The medium was then removed and cells lysed by addition of 20 μl of cell lysis buffer (Cell Signaling Technology) and incubation at 4° C. for 20 minutes. 10 μl of antibody/acceptor bead mix [(1/1000 biotinylated-pS935 LRRK2 antibody, 1/1000 total-LRRK2 antibody, 1/100 Acceptor beads in AlphaScreen detection buffer (25 mM Hepes (pH 7.4), 0.5% Triton X-100, 1 mg/ml Dextran 500 and 0.1% BSA)] was then added to each well and plates incubated for 2 hours at ambient temperature in the dark. 10 μl of donor beads solution (1/33.3 donor beads in AlphaScreen detection buffer) was then added to each well. Following incubation for a further 2 hours at ambient temperature in the dark, plates were read on an EnVision™ plate reader at emission 520-620 nm with excitation 680 nm. Dose response curve data was based on a sigmoidal dose-response model.

pIC50, ≥ 7.00:
Cc1c2c(nn1C1CCOCC1)OCC(F)CNc1nc(ncc1Cl)N2 (single isomer, unassigned) [E17, 14-Chloro-10-fluoro-4-methyl-5-(oxan-4-yl)-8-oxa-2,5,6,12,16,17-hexaazatricyclo [11.3.1.0^3,7]heptadeca-1(16),3,6,13(17),14-pentaene]
Cc1c2c(nn1C1CCOCC1)OCC(C)CNc1nc(ncc1Cl)N2 (stereo not shown) [E135, 14-Chloro-4,10-dimethyl-5-(oxan-4-yl)-8-oxa-2,5,6,12,16,17-hexaazatricyclo[11.3.1.0^3,7]heptadeca-1(16),3,6,13(17),14-pentaene]
COCC1CCOc2nn(C3CCOCC3)c(C)c2Nc2ncc(Br)c(n2)N1 (single isomer, unassigned) [E168, 14-Bromo-11-(methoxymethyl)-4-methyl-5-(oxan-4-yl)-8-oxa-2,5,6,12,16,17-hexaazatricyclo[11.3.1.0^3,7] heptadeca-1(16),3,6,13(17),14-pentaene]
Cc1c2c(nn1C1CCOCC1)OCC[C@@H](C)N(C)c1nc(ncc1Cl)N2 [E359, (11R)-14-Chloro-4,11,12-trimethyl-5-(oxan-4-yl)-8-oxa-2,5,6,12,16,17-hexaazatricyclo[11.3.1.0^3,7]heptadeca-1(16),3,6,13(17),14-pentaene]
Cc1c2c(nn1C1CCOC(C)C1)OCCC(C)Nc1nc(ncc1Cl)N2 (single isomer, unassigned) [E80, 14-chloro-4,11-dimethyl-5-(2-methyloxan-4-yl)-8-oxa-2,5,6,12, 16,17-hexaazatricyclo[11.3.1.0^3,7]heptadeca-1(16),3,6,13(17),14-pentaene]
Cc1c2c(nn1C1CCCOC1)OCCCNc1nc(ncc1C(F)(F)F)N2 (single isomer, unassigned) [E132, 4-methyl-5-(oxan-3-yl)-14-(trifluoromethyl)-8-oxa-2,5,6,12,16,17-hexaazatricyclo[11.3.1.0^3,7]heptadeca-1(16),3,6,13(17),14-pentaene]
Cc1c2c(nn1C1CCCOC1)OCCCNc1nc(ncc1C(F)(F)F)N2 (stereo not shown) [E131, 4-Methyl-5-(oxan-3-yl)-14-(trifluoromethyl)-8-oxa-2,5,6,12,16, 17-hexaazatricyclo[11.3.1.0^3,7]heptadeca-1(16),3,6,13(17),14-pentaene]
Cc1c2c(nn1C(C)(C)C#N)OCCC(C)Nc1nc(ncc1Cl)N2 (single isomer, unassigned) [E44, 2-{14-chloro-4,11-dimethyl-8-oxa-2,5,6,12,16,17-hexaazatricyclo [11.3.1.0^3,7]heptadeca-1(16),3,6,13(17),14-pentaen-5-yl}-2-methylpropanenitrile]
Cc1c2c(nn1C1COC1)OCC(F)CNc1nc(ncc1Cl)N2 (single isomer, unassigned) [E322, 14-Chloro-10-fluoro-4-methyl-5-(oxetan-3-yl)-8-oxa-2,5,6,12,16,17-hexaazatricyclo[11.3.1.0^3,7]heptadeca-1(16),3,6,13(17),14-pentaene]
Cc1c2c(nn1C1CCOCC1)OCCCNc1nc(ncc1C#N)N2 [E69, 4-Methyl-5-(oxan-4-yl)-8-oxa-2,5,6,12,16,17-hexaazatricyclo[11.3.1.0^3,7]heptadeca-1(16),3,6,13(17),14-pentaene-14-carbonitrile]
Cc1[nH]nc2c1Nc1ncc(Cl)c(n1)NCC(C)CO2 (stereo not shown) [E431, 14-Chloro-4,10-dimethyl-8-oxa-2,5,6,12,16,17-hexaazatricyclo[11.3.1.0^3,7]heptadeca-1(16),3,6,13(17),14-pentaene]
C[C@@H]1CCOc2nn(C3CN(C4COCCC4(F)F)C3)c(Cl)c2Nc2ncc(Cl)c(n2)N1 (stereo partly drawn) [E440, (11R)-4,14-Dichloro-5-[1-(4,4-difluorooxan-3-yl)azetidin-3-yl]-11-methyl-8-oxa-2,5,6,12,16,17-hexaazatricyclo[11.3.1.0^3,7]heptadeca-1(16),3,6,13(17),14-pentaene, TFA salt]
Cc1c2c(nn1C1CCCOC1)OCCC(C)Nc1cc(ncc1Cl)N2 (single isomer, unassigned) [E346, 14-Chloro-4,11-dimethyl-5-(oxan-3-yl)-8-oxa-2,5,6,12,16-pentaazatricyclo[11.3.1.0^3,7]heptadeca-1(16),3,6,13 (17),14-pentaene]
COC1CNc2nc(ncc2Cl)Nc2c(nn(CCN3CCOCC3)c2C)OC1 (single isomer, unassigned) [E223, 14-Chloro-10-methoxy-4-methyl-5-[2-(morpholin-4-yl)ethyl]-8-oxa-2,5,6,12,16,17-hexaazatricyclo [11.3.1.0^3,7]heptadeca-1(16),3,6,13(17),14-pentaene]
Cc1c2c(nn1C1CCOC1)OCCCNc1nc(ncc1Cl)N2 (stereo not shown) [E122, 14-Chloro-4-methyl-5-(oxolan-3-yl)-8-oxa-2,5,6,12,16,17-hexa azatricyclo[11.3.1.0^3,7]heptadeca-1(16),3,6,13(17),14-pentaene]
COCCN1CCC(n2nc3c(c2C)Nc2ncc(Cl)c(n2)N[C@H](C)CCO3)C(F)C1 (single isomer, unassigned) [E100]
Cc1c2c(nn1C1CCC(N3CCOCC3)CC1)OCCC(C)Nc1nc(ncc1Cl)N2 (single isomer, unassigned) [E150]
Cc1c2c(nn1C1CCOCC1F)OCCC(C)Nc1nc(ncc1Cl)N2 (single isomer, unassigned) [E24, 14-chloro-5-(3-fluorooxan-4-yl)-4,11-dimethyl-8-oxa-2,5,6,12,16,17-hexaazatricyclo [11.3.1.0^3,7]heptadeca-1(17),3,6,13,15-pentaene]
Clc1cnc2nc1NCCCOc1nn(C3CCOC3)c(Cl)c1N2 (stereo not shown) [E144, 4,14-Dichloro-5-(oxolan-3-yl)-8-oxa-2,5,6,12,16,17-hexaaza tricyclo[11.3.1.0^3,7]heptadeca-1(16),3,6,13(17),14-pentaene]
Cc1c2c(nn1C1CC3CCC(C1)O3)OCCC(C)Nc1nc(ncc1Cl)N2 (single isomer, unassigned) [E249, 14-Chloro-4,11-dimethyl-5-{8-oxabicyclo[3.2.1]octan-3-yl}-8-oxa-2,5,6,12,16,17-hexaazatricyclo[11.3.1.0^3,7] heptadeca-1(16),3,6,13(17),14-pentaene]
Cc1c2c(nn1CC1CCOCC1)OCCCNc1nc(ncc1Cl)N2 [E338, 14-Chloro-4-methyl-5-(oxan-4-ylmethyl)-8-oxa-2,5,6,12,16,17-hexaazatricyclo[11.3.1.0^3,7]heptadeca-1(16),3,6,13(17),14-pentaene]
CC1CCOc2nn(C3CCOCC3)c(Cl)c2Nc2ncc(Cl)c(n2)N1 (stereo not shown) [E343, 4,14-Dichloro-11-methyl-5-(oxan-4-yl)-8-oxa-2,5,6,12,16,17-hexaazatricyclo[11.3.1.0^3,7]heptadeca-1(16),3,6,13(17),14-pentaene]
N#Cc1cnc2nc1NCCCOc1nn(C3CCOCC3)c(Cl)c1N2 [E15, 4-Chloro-5-(oxan-4-yl)-8-oxa-2,5,6,12,16,17-hexaazatricyclo[11.3.1.0^3,7]heptadeca-1(16),3,6,13(17),14-pentaene-14-carbonitrile]
Cc1c2c(nn1C1(C)CCOCC1)OCCCNc1nc(ncc1Cl)N2 [E436, 14-Chloro-4-methyl-5-(4-methyloxan-4-yl)-8-oxa-2,5,6,12,16,17-hexaazatricyclo[11.3.1.0^3,7]heptadeca-1(16),3,6,13(17),14-pentaene]
Cc1c2c(nn1C1CCC(F)(F)CC1)OCC[C@@H](C)Nc1nc(ncc1Cl)N2 [E373, (11R)-14-Chloro-5-(4,4-difluorocyclohexyl)-4,11-dimethyl-8-oxa-2,5,6,12,16,17-hexaazatricyclo[11.3.1.0^3,7]heptadeca-1(16),3,6,13 (17),14-pentaene]
